Patent publication US20200129528A1, “METHODS FOR TREATING BLOOD PRESSURE CONDITIONS USING AMINOSTEROL COMPOSITIONS” (Enterin, Inc., priority 2018, published 2020)
Several values for one entry are separate records, joined by “and”; a condition that tells them apart may be missing. Equal values may be shown once. Read-outs that look alike come from different tables or passages of the source.

Tests used:
[1] = set-up: species or system dogs; details: dog, in vivo
[2] = test system: patients with PD and constipation; experiment: Phase 2 trial: adverse events in all 44 dosed patients; type: in vivo, human
Description: Fifty patients were enrolled and 44 were dosed. In Stage 1, 10 patients were dosed, 1 (10%) withdrew prior to completion and 9 (90%) completed dosing. In stage 2, 6 (15%) patients had ≥3 CSBM/week at the end of the run-in period and were excluded, 34 patients were dosed and bowel response was assessable in 31 (91%). Two patients (5.8%) were terminated prior to completion because of recurrent dizziness, and 3 others withdrew during dosing (8.8%): 2 because of diarrhea and 1 because of holiday. Fifteen patients were randomized.
Most AEs were confined to the GI tract (88% in Stage 1 and 63% in Stage 2). The most common AE was nausea which occurred in 4/10 (40%) patients in Stage 1 and in 18/34 (52.9%) in Stage 2 (Table 2). Diarrhea occurred in 4/10 (40%) patients in Stage 1 and 15/34 (44%) in Stage 2. One patient withdrew because of recurrent diarrhea. Other GI related AEs included abdominal pain 11/44 […], flatulence 3/44 (6.8%), vomiting 3/44 (6.8%), worsening of acid reflux 2/44 (4.5%), and worsening of hemorrhoids 1/44 (2.2%). […] The only other noteworthy AE was dizziness 8/44 (18%). Dizziness was graded as moderate in one patient who was receiving an alpha-adrenergic blocking agent (Terazosin). This patient was withdrawn from the study and recovered spontaneously.

[3] = test system: patients with PD and constipation; experiment: Phase 2 trial Stage 2: adverse events; type: in vivo, human
Description: In Stage 2, 34 patients were evaluated. […] This dose was then maintained (“fixed dose”) fir an additional 3-5 days.

[4] = test system: patients with PD and constipation; experiment: Sleep diary in Stage 2: total sleep time, arm or leg thrashing (RBD); type: in vivo, human; details: baseline to maximal dose
Description: FIG. 3 is a chart of total sleep time in relation to squalamine dose. Total sleep time was obtained from the sleep diary by subtracting awake time during the night from total time spent in bed. Total sleep time per night was logged for each patient at baseline, each dosing period and at washout, and the means were determined. The light grey bar represents the baseline value for each cohort at a given dose level and the dark grey bar represents the value for the same cohort at the stated dose of squalamine (ENT-01; Kenterin™). The number of patients represented at each value are: Baseline, 33; 75 mg, 21; 100 mg, 28; 125 mg, 18; 150 mg, 15; 175 mg, 12; 200 mg, 7; 225 mg, 3; 250 mg, 2; washout, 33. P values were as follows: 75 mg, p=0.4; 100 mg, p=0.1; 125 mg, p=0.3; 150 mg, p=0.07; 175 mg, p=0.03; 200 mg, p=0.3; 225 mg, p=0.5; 250 mg, p=0.3; wash-out, p=0.04 (paired t test).
(5) Sleep Diary (participants completed a sleep diary on a daily basis throughout the study. The diaries included time into bed and estimated time to sleep as well as wake time and duration during the night.); […]

[5] = set-up: species or system rats; details: rat, in vivo
[6] = test system: patients with PD and constipation; experiment: Systolic blood pressure in Stage 2 of the clinical study; type: in vivo, human; details: for change of blood pressure in subjects with high blood pressure / change of blood pressure in subjects with low blood pressure: Stage 2, post medication / fixed dose versus baseline
Excerpt: Subjects in Stage 2 of the clinical study described in Example 1 had their systolic blood pressure measured at various points during the clinical study. […]

[7] = test system: patients with PD and constipation; experiment: Systolic blood pressure in Stage 1 (single dose); type: in vivo, human; details: lying position
Excerpt: Normalization refers to lowering high blood pressure and raising low blood pressure into normal ranges. The numbers shown in the graph represent baseline BP then highest treatment BP, both in the lying position, pre-medication. The result is significant despite the small sample size (p=0.01).

[8] = test system: patients with PD and constipation; experiment: Phase 2 trial Stage 1: adverse events; type: in vivo, human; details: Stage 1, 10 dosed
Excerpt: Tolerability limits included diarrhea or vomiting.

[9] = Stage 2, individual subjects, one line per subject

Which oral bioavailability [1] does the source give for `CC(C)[C@@H](CC[C@@H](C)[C@H]1CC[C@H]2[C@@H]3[C@H](O)C[C@H]4C[C@@H](NCCCNCCCCN)CC[C@]4(C)[C@H]3CC[C@]12C)OS(=O)(=O)O` (single isomer, unassigned) [ENT-01, squalamine] here?
The oral bioavailability was “limited bioavailability”.

What about the “outcome of all other AEs” value ([2]; human, in vivo) of the same compound?
The value was “resolved spontaneously without discontinuation”.

What about the “lower GI bleed (serious adverse event), relation to drug” value ([2]; one patient, during the withdrawal period, on aspirin, naproxen and clopidogrel) of the same compound?
The value was “unrelated to study medication”.

And the “patients who withdrew during dosing because of diarrhea” value ([3]; Stage 2)?
Its value is 2.

What about the “Difficulty falling asleep, mild” value ([3]; Stage 2, 34 dosed) of the same compound?
The value was 1(3)^ n, %.

What about the “Eye infection, mild” value ([3]; Stage 2, 34 dosed) of the same compound?
The value was 1(3)^ n, %.

And the “Flatulence, mild” value ([3]; Stage 2, 34 dosed)?
Its value is 1(3)^ n, %.

What about the “Urinary retention, mild” value ([3]; Stage 2, 34 dosed) of the same compound?
The value was 1(3)^ n, %.

What about the “Urinary tract infection, mild” value ([3]; Stage 2, 34 dosed) of the same compound?
The value was 1(3)^ n, %.

And the “Worsening hemorrhoid, mild” value ([3]; Stage 2, 34 dosed)?
The value was 1(3)^ n, %.

And the “improvement of arm or leg thrashing frequency” value [4]?
Its value is 100%.

And the oral bioavailability [5]?
The oral bioavailability was “limited bioavailability”.

What about the “absorption from the intestine” value ([5]; po) of the same compound?
Its value is “low”.

And the “BP at FD-V4 pre dose” value [6, 9]?
Its value is 122 and 147 and 144 and 154 and 115 and 110 (2×) and 138 and 130 and 121 and 113.

And the “BP at V4 + 2 hrs post dose” value [6, 9]?
The value was 113 and 163 and 138 and 105 and 11 and 132 (2×) and 126 and 131 and 115.

And the “final BP- v3, mean” value ([6]; Stage 2, mean of series, initial mean 133.4219, p=0.011638)?
The value was 126.3.

And the “change of blood pressure in subjects with high blood pressure” value [6]?
The value was “decreased blood pressure”.

What about the “change of blood pressure in subjects with low blood pressure” value [6] of the same compound?
The value was “increased blood pressure”.

What about the “change of blood pressure in subjects with high blood pressure” value ([6]; listed as aminosterol) of the same compound?
The value was “lower blood pressure”.

And the “change of blood pressure in subjects with low blood pressure” value ([6]; listed as aminosterol)?
The value was “higher blood pressure”.

And the “effect on systolic BP” value [7]?
Its value is “normalization of systolic BP”.

And the “Abdominal pain, mild” value [8]?
The value was 2(20) n, %.

And the “Abdominal pain, moderate” value [8]?
Its value is 3(30) n, %.

And the “Diarrhea, mild” value [8]?
The value was 1(10) n, %.

And the “Diarrhea, moderate” value [8]?
The value was 3(30) n, %.

What about the “Flatulence, mild” value [8] of the same compound?
The value was 2(20) n, %.

And the “Headache, mild” value [8]?
The value was 1(10) n, %.

What about the “Vomiting, mild” value [8] of the same compound?
Its value is 1(10) n, %.

What about the “Blood in urine, mild” value ([8]; unrelated to ENT-01) of the same compound?
The value was 1(10) n, %.

What about the “Loss of appetite, mild” value ([8]; unrelated to ENT-01) of the same compound?
The value was 1(10) n, %.
